Results as given in publication PMC7272617 (Scientific Reports, 2020).
Converted amounts (≈) assume the structure as drawn. Where a SMILES comes first, the peptide text is derived from it.

What was measured:
[1] = system: Staphylococcus aureus ATCC 25923; settings: ATCC 25923, 24 h
[2] = system: Vibrio cholera O1 Inaba DMST 16261; settings: MHB, 37 °C, 24 h
[3] = system: all Gram-negative strains; assay: Mean MIC and therapeutic index, Gram-negative strains; type: cell-based; settings: 7 Gram-negative strains of Table 3
Procedure: (§1) The antimicrobial activity of the peptides was determined against both Gram-positive and -negative bacteria including 14 MDR P. aeruginosa clinical isolates from Bhumibol Adulyadej Hospital (Tables 1 and 3). The minimal inhibitory concentration (MIC) of each peptide was measured according to a modification of the National Committee for Clinical Laboratory Standards (NCCLS) broth microdilution method as previously described. Briefly, bacterial cells in mid-log phase were cultured in Müeller-Hinton broth (MHB) and then diluted to 10^7 CFU/ml. […] Plates were incubated at 37 °C for 24 h, and MICs were defined as the lowest concentration of peptide that prevented visible turbidity. Cultures without peptides and uninoculated MHB were employed as positive and negative controls, respectively. Colony count assays were performed to determine the minimal bactericidal concentrations (MBCs) for determination of time-killing activity. As previously described, a 50 μl aliquot from each non-turbid well identified in the MIC determination experiment was spread on agar plates.
(§2) To further evaluate the global activity of these peptides, the geometric mean (GM) MIC and the therapeutic index (TI) of each were calculated (Table 3). The TI, a widely used parameter to evaluate cell selectivity and specificity of antimicrobial agents, was calculated as the ratio of MHC (the concentration that causes 10% hemolysis) to the geometric mean of MICs[22]. Higher TIs indicated greater cell selectivity and specificity.

[4] = system: Listeria monocytogenes 10403 s; settings: 10403 s, 24 h
[5] = system: all Gram-positive strains; assay: Mean MIC and therapeutic index, Gram-positive strains; type: cell-based; settings: 5 Gram-positive strains of Table 3
Procedure: as §1, §2

[6] = system: Staphylococcus epidermidis ATCC 12228; settings: ATCC 12228, 24 h
[7] = system: Escherichia coli ATCC 25922; settings: ATCC 25922, 24 h
[8] = system: Escherichia coli O157:H7 MT strain; settings: E. coli O157:H7 MT strain; MHB, 37 °C, 24 h
[9] = system: Enterococcus faecalis ATCC 29212; settings: ATCC 29212, 24 h
[10] = system: Pseudomonas aeruginosa ATCC 27853; settings: ATCC 27853, 24 h
[11] = system: Salmonella Typhimurium ATCC 13311; settings: ATCC 13311, 24 h
[12] = system: Gram-negative and -positive bacterial strains; assay: MIC against the panel of Gram-negative and -positive bacterial strains; type: cell-based; settings: 12 strains of Table 3; result in words
[13] = system: Acinetobacter baumannii MT strain; settings: MT strain, 24 h

| SMILES | MIC [1] [µg/mL] | MIC [2] [µg/mL] | GM (Gr.− strains): geometric mean of MIC values from all Gram-negative strains [3] [µg/mL] | MIC [4] [µg/mL] | GM (Gr.+ strains): geometric mean of MIC values from all Gram-positive strains [5] [µg/mL] | MIC [6] [µg/mL] | MIC [7] [µg/mL] | MIC [8] [µg/mL] | MIC [9] [µg/mL] | MIC [10] [µg/mL] | MIC [11] [µg/mL] | antibacterial activity against tested microorganisms [12] | MIC [13] [µg/mL] |
| --- | --- | --- | --- | --- | --- | --- | --- | --- | --- | --- | --- | --- | --- |
| CC[C@H](C)[C@H](NC(=O)[C@H](CCCNC(=N)N)NC(=O)[C@H](CCCCN)NC(=O)[C@H](C)NC(=O)[C@@H](NC(=O)[C@@H](N)CCCCN)[C@@H](C)CC)C(=O)N[C@@H](Cc1c[nH]c2ccccc12)C(=O)N[C@@H](CCCCN)C(=O)N[C@H](C(=O)N[C@@H](CC(C)C)C(=O)N[C@@H](CCCNC(=N)N)C(=O)N[C@@H](CCCNC(=N)N)C(=O)N[C@@H](CCCNC(=N)N)C(=O)N[C@@H](CC(C)C)C(=O)N[C@@H](Cc1ccccc1)C(=O)N[C@@H](CCCNC(=N)N)C(=O)N[C@@H](CCCNC(=N)N)C(=O)N[C@H](C(=O)N[C@@H](CCCCN)C(=O)N[C@@H](CCCCN)C(=O)N[C@H](C(=O)N[C@@H](C)C(=O)NCC(N)=O)C(C)C)C(C)C)[C@@H](C)CC [P7A3] (H-KIAKRIWKILRRRLFRRVKKVAG-NH2; N-terminus assumed) | 15.63 (≈ 5.41 µM) | 7.81 (≈ 2.7 µM) | 42.97 | 3.91 (≈ 1.35 µM) | 12.50 | 3.91 (≈ 1.35 µM) | 15.63 (≈ 5.41 µM) | 250 (≈ 86.5 µM) | 31.25 (≈ 10.8 µM) | – | – | – | – |
| CC[C@H](C)[C@H](NC(=O)[C@H](CCCNC(=N)N)NC(=O)[C@H](CCCCN)NC(=O)[C@H](C)NC(=O)[C@@H](NC(=O)[C@@H](N)CCCCN)[C@@H](C)CC)C(=O)N[C@@H](Cc1c[nH]c2ccccc12)C(=O)N[C@@H](CCCCN)C(=O)N[C@H](C(=O)N[C@@H](CC(C)C)C(=O)N[C@@H](CCCNC(=N)N)C(=O)N[C@@H](CCCNC(=N)N)C(N)=O)[C@@H](C)CC [P7] (H-KIAKRIWKILRR-NH2; N-terminus assumed) | 62.5 (≈ 39.6 µM) | 31.25 (≈ 19.8 µM) | 28.46 | 7.81 (≈ 4.94 µM) | 121.09 | 3.91 (≈ 2.47 µM) | 15.63 (≈ 9.89 µM) | 125 (≈ 79.1 µM) | >250 | 7.81 (≈ 4.94 µM) | 7.81 (≈ 4.94 µM) | potent antibacterial activity | 7.81 (≈ 4.94 µM) |
| CC[C@H](C)[C@H](NC(=O)[C@H](CCCNC(=N)N)NC(=O)[C@H](CCCCN)NC(=O)[C@H](C)NC(=O)[C@@H](NC(=O)[C@@H](N)CCCCN)[C@@H](C)CC)C(=O)N[C@@H](Cc1c[nH]c2ccccc12)C(=O)N[C@@H](CCCCN)C(=O)N[C@H](C(=O)N[C@@H](CC(C)C)C(=O)N[C@@H](CCCNC(=N)N)C(=O)N[C@@H](CCCNC(=N)N)C(=O)N[C@@H](CCCNC(=N)N)C(=O)N[C@@H](CC(C)C)C(N)=O)[C@@H](C)CC [PA-14] (H-KIAKRIWKILRRRL-NH2; N-terminus assumed) | 15.63 (≈ 8.45 µM) | 7.81 (≈ 4.22 µM) | 14.23 | 1.95 (≈ 1.05 µM) | 30.86 | 3.91 (≈ 2.11 µM) | 15.63 (≈ 8.45 µM) | 62.5 (≈ 33.8 µM) | 125 (≈ 67.6 µM) | 3.91 (≈ 2.11 µM) | 1.95 (≈ 1.05 µM) | – | 3.91 (≈ 2.11 µM) |
| CC[C@H](C)[C@H](NC(=O)[C@H](CCCNC(=N)N)NC(=O)[C@H](CCCCN)NC(=O)[C@H](C)NC(=O)[C@@H](NC(=O)[C@@H](N)CCCCN)[C@@H](C)CC)C(=O)N[C@@H](Cc1c[nH]c2ccccc12)C(=O)N[C@@H](CCCCN)C(=O)N[C@H](C(=O)N[C@@H](CC(C)C)C(=O)N[C@@H](CCCNC(=N)N)C(=O)N[C@@H](CCCNC(=N)N)C(=O)N[C@@H](CCCNC(=N)N)C(=O)N[C@@H](CC(C)C)C(=O)N[C@@H](Cc1ccccc1)C(N)=O)[C@@H](C)CC [PA-15] (H-KIAKRIWKILRRRLF-NH2; N-terminus assumed) | 7.81 (≈ 3.91 µM) | 3.91 (≈ 1.96 µM) | 7.54 | 1.95 (≈ 0.977 µM) | 9.77 | – | – | 15.63 (≈ 7.83 µM) | 31.25 (≈ 15.7 µM) | 7.81 (≈ 3.91 µM) | 1.95 (≈ 0.977 µM) | – | – |
| CC[C@H](C)[C@H](NC(=O)[C@H](CCCNC(=N)N)NC(=O)[C@H](CCCCN)NC(=O)[C@H](C)NC(=O)[C@@H](NC(=O)[C@@H](N)CCCCN)[C@@H](C)CC)C(=O)N[C@@H](Cc1c[nH]c2ccccc12)C(=O)N[C@@H](CCCCN)C(=O)N[C@H](C(=O)N[C@@H](CC(C)C)C(=O)N[C@@H](CCCNC(=N)N)C(=O)N[C@@H](CCCNC(=N)N)C(=O)N[C@@H](CCCNC(=N)N)C(=O)N[C@@H](CC(C)C)C(=O)N[C@@H](Cc1ccccc1)C(=O)N[C@@H](CCCNC(=N)N)C(N)=O)[C@@H](C)CC [PA-16] (H-KIAKRIWKILRRRLFR-NH2; N-terminus assumed) | 7.81 (≈ 3.63 µM) | 3.91 (≈ 1.82 µM) | 13.67 | – | 7.03 | – | 7.81 (≈ 3.63 µM) | 62.5 (≈ 29 µM) | 15.63 (≈ 7.26 µM) | 7.81 (≈ 3.63 µM) | 1.95 (≈ 0.906 µM) | – | 7.81 (≈ 3.63 µM) |
| CC[C@H](C)[C@H](NC(=O)[C@H](CCCNC(=N)N)NC(=O)[C@H](CCCCN)NC(=O)[C@H](C)NC(=O)[C@@H](NC(=O)[C@@H](N)CCCCN)[C@@H](C)CC)C(=O)N[C@@H](Cc1c[nH]c2ccccc12)C(=O)N[C@@H](CCCCN)C(=O)N[C@H](C(=O)N[C@@H](CC(C)C)C(=O)N[C@@H](CCCNC(=N)N)C(=O)N[C@@H](CCCNC(=N)N)C(=O)N[C@@H](CCCNC(=N)N)C(=O)N[C@@H](CC(C)C)C(=O)N[C@@H](Cc1ccccc1)C(=O)N[C@@H](CCCNC(=N)N)C(=O)N[C@@H](CCCNC(=N)N)C(N)=O)[C@@H](C)CC [PA-17] (H-KIAKRIWKILRRRLFRR-NH2; N-terminus assumed) | 15.63 (≈ 6.77 µM) | 7.81 (≈ 3.38 µM) | 15.63 | 1.95 (≈ 0.845 µM) | 12.11 | 3.91 (≈ 1.69 µM) | 15.63 (≈ 6.77 µM) | 62.5 (≈ 27.1 µM) | 31.25 (≈ 13.5 µM) | – | 3.91 (≈ 1.69 µM) | – | – |
| CC[C@H](C)[C@H](NC(=O)[C@H](CCCNC(=N)N)NC(=O)[C@H](CCCCN)NC(=O)[C@H](C)NC(=O)[C@@H](NC(=O)[C@@H](N)CCCCN)[C@@H](C)CC)C(=O)N[C@@H](Cc1c[nH]c2ccccc12)C(=O)N[C@@H](CCCCN)C(=O)N[C@H](C(=O)N[C@@H](CC(C)C)C(=O)N[C@@H](CCCNC(=N)N)C(=O)N[C@@H](CCCNC(=N)N)C(=O)N[C@@H](CCCNC(=N)N)C(=O)N[C@@H](CC(C)C)C(=O)N[C@@H](Cc1ccccc1)C(=O)N[C@@H](CCCNC(=N)N)C(=O)N[C@@H](CCCNC(=N)N)C(=O)N[C@H](C(N)=O)C(C)C)[C@@H](C)CC [PA-18] (H-KIAKRIWKILRRRLFRRV-NH2; N-terminus assumed) | 15.63 (≈ 6.49 µM) | 7.81 (≈ 3.24 µM) | 45.76 | 1.95 (≈ 0.81 µM) | 12.11 | 3.91 (≈ 1.62 µM) | 31.25 (≈ 13 µM) | 250 (≈ 104 µM) | 31.25 (≈ 13 µM) | – | 3.91 (≈ 1.62 µM) | – | 15.63 (≈ 6.49 µM) |
